Source: article PMC5011342, “A high throughput drug screening assay to identify compounds that promote oligodendrocyte differentiation using acutely dissociated and purified oligodendrocyte precursor cells” (BMC Research Notes, 2016)
Where two headings read alike, the source gives them in different places.

How the values were obtained:
[1] = system: acutely dissociated and purified rat OPCs; assay: Acute OL differentiation assay (MBP expression/cell, immunofluorescent image quantification); assay type: cell-based; conditions: for activation at 0.4 µM: 0.4 uM test compound, read-out: OL differentiation, 0.4 uM (% Quet)
How it was run: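 Oligodendrocyte precursor cells were enriched from P6-P7 Sprague–Dawley rat brains by immunopanning (RAN-2 and GalC depletion, O4 selection), plated at 5000 cells/well in serum-free, mitogen-free differentiation media on PDL/laminin 96-well view plates, centrifuged at 200×g, and pre-incubated 1–2 h before test compounds were added in quadruplicate. On DIV4, cells were fixed, stained for MBP and DAPI, imaged automatically, and MBP expression per cell was quantified.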

[2] = system: expanded OPCs; assay: cells; conditions: for viability at 0.1 µM / viability at 1 µM / viability at 10 µM: Rattus norvegicus, 72 h
How it was run: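 Expanded OPCs seeded at 10,000 cells/well in differentiation media, then exposed to NCC library compounds at 10, 1 and 0.1 µM (quadruplicate, 0.1% DMSO) for three days. Viability read as alamarBlue fluorescence (560/590 nm) after 4 h at 37 °C; tunicamycin 5 ng/ml served as toxicity control.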

[3] = Rattus norvegicus, 2 uM test compound, relative to quetiapine, sheet "All OLga data", read-out: OL differentiation, 2 uM (% Quet)
[4] = Rattus norvegicus, 10 uM test compound, relative to quetiapine, sheet "All OLga data", read-out: OL differentiation, 10 uM (% Quet)
[5] = read-out: 0.1 µM (% DMSO), alamarBlue viability of expanded OPCs, compound at 0.1 µM, sheet All Tox data
[6] = read-out: 1 µM (% DMSO), alamarBlue viability of expanded OPCs, compound at 1 µM, sheet All Tox data
[7] = read-out: 10 µM (% DMSO), alamarBlue viability of expanded OPCs, compound at 10 µM, sheet All Tox data
[8] = Rattus norvegicus, test compound at 2 uM, NCC library screen, sheet "All OLga data", relative to quetiapine, read-out: 2 uM (% Quet)
[9] = Rattus norvegicus, test compound at 10 uM, NCC library screen, sheet "All OLga data", relative to quetiapine, read-out: 10 uM (% Quet)
[10] = read-out: 0.1 µM (% DMSO), alamarBlue viability, NCC library compound at 0.1 µM, sheet "All Tox data"
[11] = read-out: 1 µM (% DMSO), alamarBlue viability, NCC library compound at 1 µM, sheet "All Tox data"
[12] = read-out: 10 µM (% DMSO), alamarBlue viability, NCC library compound at 10 µM, sheet "All Tox data"
[13] = alamarBlue viability of expanded OPCs, compound at 0.1 µM, relative to DMSO control
[14] = alamarBlue viability of expanded OPCs, compound at 1 µM, relative to DMSO control
[15] = alamarBlue viability of expanded OPCs, compound at 10 µM, relative to DMSO control
[16] = test compound at 2 uM, MBP expression relative to quetiapine, NCC library screen, sheet "All OLga data"
[17] = test compound at 10 uM, MBP expression relative to quetiapine, NCC library screen, sheet "All OLga data"
[18] = Rattus norvegicus, relative to quetiapine, sheet "All OLga data"

| SMILES | activation at 2 µM [1, 3] [%] | activation at 10 µM [1, 4] [%] | viability at 0.1 µM [2, 5] [%] | viability at 1 µM [2, 6] [%] | viability at 10 µM [2, 7] [%] | activation at 2 µM [1, 8] [%] | activation at 10 µM [1, 9] [%] | viability at 0.1 µM [2, 10] [%] | viability at 1 µM [2, 11] [%] | viability at 10 µM [2, 12] [%] | further results |
| --- | --- | --- | --- | --- | --- | --- | --- | --- | --- | --- | --- |
| CN(C)CCN(Cc1ccccc1)c1ccccn1 [Tripelennamine] | 8.2 | 31.1 | 82.9 | 86.1 | 80.7 |  |  |  |  |  |  |
| CC(C)(C#N)c1cc(Cn2cncn2)cc(C(C)(C)C#N)c1 [Anastrozole] |  |  |  |  |  | -29.6 | -33 | 87.4 | 92.9 | 80.3 |  |
| CC(=O)NS(=O)(=O)c1ccc(N)cc1 [Sulfacetamide] |  |  |  |  |  | 11.2 | 0.16 | 90.1 | 91.6 | 89.7 |  |
| Cc1ccc(Cl)c(Nc2ccccc2C(=O)O)c1Cl [Meclofenamic acid] |  |  |  |  |  |  |  |  |  |  | activation at 2 µM ([1]; Rattus norvegicus, test compound at 2 uM, MBP expression relative to quetiapine, NCC library screen, sheet "All OLga data", read-out: 2 uM (% Quet)): 14.1%; activation at 10 µM ([1]; Rattus norvegicus, test compound at 10 uM, MBP expression relative to quetiapine, NCC library screen, sheet "All OLga data", read-out: 10 uM (% Quet)): -2.1%; 0.1 µM (% DMSO) [2, 13]: 91.1 % DMSO; 1 µM (% DMSO) [2, 14]: 93.6 % DMSO; 10 µM (% DMSO) [2, 15]: 93.6 % DMSO |
| O.O.O=C1N=C([O-])CN1/N=C/c1ccc(-c2ccc([N+](=O)[O-])cc2)o1.[Na+] [Dantrolene sodium salt dihydrate] |  |  |  |  |  |  |  |  |  |  | 2 uM (% Quet) [1, 16]: -16.0 % Quet; 10 uM (% Quet) [1, 17]: -55.0 % Quet; 0.1 µM (% DMSO) [2, 13]: 93.5 % DMSO; 1 µM (% DMSO) [2, 14]: 100.3 % DMSO; 10 µM (% DMSO) [2, 15]: 91.7 % DMSO |
| CN1CCN2c3ncccc3Cc3ccccc3C2C1 (stereo not shown) [Remergil] |  |  |  |  |  |  |  |  |  |  | 2 uM (% Quet) [1, 16]: -49.3 % Quet; 10 uM (% Quet) [1, 17]: -63.5 % Quet; 0.1 µM (% DMSO) [2]: 90.1 % DMSO; 1 µM (% DMSO) [2]: 82.0 % DMSO; 10 µM (% DMSO) [2]: 62.7 % DMSO |
| c1cncc([C@@H]2CCCN2)c1 [Nornicotine] | 18.1 | 10.4 | 86 | 101 | 98.4 |  |  |  |  |  |  |
| COC(=O)Nc1nc2cc(C(=O)c3ccc(F)cc3)ccc2[nH]1 [Flubendazole] | -188 |  | 74.4 | 69.3 | 43.7 |  |  |  |  |  | activation at 0.4 µM [1, 18]: -62.9% |
| CC(=O)O[C@@]12CO[C@@H]1C[C@H](O)[C@@]1(C)C(=O)[C@H](O)C3=C(C)[C@@H](OC(=O)[C@H](O)[C@@H](NC(=O)OC(C)(C)C)c4ccccc4)C[C@@](O)([C@@H](OC(=O)c4ccccc4)[C@H]21)C3(C)C [Docetaxel] |  |  | 39.1 | 38.8 | 47.6 |  |  |  |  |  | activation at 0.08 µM ([1]; Rattus norvegicus, 0.08 uM test compound, relative to quetiapine, sheet "All OLga data", read-out: OL differentiation, 0.08 uM (% Quet)): -94.4%; activation at 0.4 µM [1, 18]: -105% |
| CC(C)NCC(O)COc1ccc(CCOCC2CC2)cc1 (stereo not shown) [Betaxolol, reference compound] | 32.8 | 51.8 |  |  |  |  |  | 102 | 97.8 | 104 | EC50 ([1]; Rattus norvegicus, average EC50 for induction of OL differentiation from independent biological replicates, eight concentrations): 4.2 µM; hit in OL differentiation assay, MRF-TMC ([1]; ● = confirmed hit in this paper's assay): ● |
| CC=CC(=O)N(CC)c1ccccc1C (mixture of isomers) [Crotamiton] | 1.7 | 1.9 | 92.3 | 106 | 97.8 |  |  |  |  |  |  |
| O=C1Nc2ccc(Cl)cc2C(c2ccccc2Cl)=NC1O (stereo not shown) [Lorazepam] |  |  |  |  |  | -21.5 | -31.2 | 90.5 | 81.6 | 71.2 |  |
| CCCCNc1cc(C(=O)O)cc(S(N)(=O)=O)c1Oc1ccccc1 [Bumetanide] |  |  |  |  |  | -20.2 | -11.6 |  |  |  | 0.1 µM (% DMSO) [2, 13]: 92.3 % DMSO; 1 µM (% DMSO) [2, 14]: 97.8 % DMSO; 10 µM (% DMSO) [2, 15]: 92.2 % DMSO |
